Source: patent publication US20260055051A1, “Compound with anti-tumor activity, preparation method therefor, and use thereof” (Ocean University of China, priority 2022, published 2026)

How the values were obtained:
[1] = tested on: A549 cells; assay: A549 cell-BALB/c nude mouse subcutaneous tumor transplantation experiment; format: in vivo, BALB/c nude mice; details: A549 model, test compound 0.5 mg/mL at 10 mL/kg tail vein, 15 times, 6 times; for average tumor volume at the end of the experiment: 5 times a week, 5-fu 20 mg/kg twice a week; for inhibitory effect (inhibition rate of average tumor weight, FIG. 6): 5-fu 20 mg/kg
Method: (§1) BALB/c nude mice were subcutaneously inoculated with A549, HCT116 and HT-29 cells to establish tumor transplantation models. • Solvent Control Group: 2% DMSO+normal saline+sodium carbonate (the molar ratio of the compound to sodium carbonate is 1:2) • 5-fluorouracil control group: 5-fluorouracil injection (20 mg/kg);
(§2) Test compound group: 1 mg of a test compound was fully dissolved in […] DMSO, and then diluted with normal saline to 0.5 mg/mL. 2 mL was used each time, freshly prepared before use on the same day.
(§3) Eight mice were in each group.
(§4) The solvent control group and the test compound group were administered at a dose of 10 mL/kg via tail vein injection (the dose for each administration was calculated based on the body weight on that day), 5 times a week, for a total of 15 times. The animals were euthanized after the last administration.
(§5) The 5-fluorouracil control group was administered twice a week for a total of 6 times.
(§6) The body weight and tumor diameter were measured twice a week during the administration period. Tumors and the spleen were removed and weighed after euthanasia. The tumor volume, relative tumor volume (RTV), relative tumor growth rate (T/C %), tumor volume inhibition rate (IRTV%), and tumor weight inhibition rate (IRTW%) were calculated. Data for animals that died accidentally were only listed but excluded from statistical analysis.

[2] = Body weight of tumor-transplanted mice during administration; format: in vivo; details: A549, HCT116 and HT-29 transplanted mice, during administration period
Method: as §1, §2, §3, §4, §5, §6

[3] = tested on: HCT116 cells; assay: HCT116 cell-BALB/c nude mouse subcutaneous tumor transplantation experiment; format: in vivo, BALB/c nude mice; details: HCT116 model, test compound 0.5 mg/mL at 10 mL/kg tail vein, 15 times, 6 times; for average tumor volume at the end of the experiment: 5 times a week, 5-fu 20 mg/kg twice a week; for inhibitory effect (inhibition rate of average tumor weight, FIG. 6): 5-fu 20 mg/kg
Method: as §1, §2, §3, §4, §5, §6

[4] = tested on: HT-29 cells; assay: HT-29 cell-BALB/c nude mouse subcutaneous tumor transplantation experiment; format: in vivo, BALB/c nude mice; details: HT-29 model, test compound 0.5 mg/mL at 10 mL/kg tail vein, 15 times, 6 times; for average tumor volume at the end of the experiment: 5 times a week, 5-fu 20 mg/kg twice a week; for inhibitory effect (inhibition rate of average tumor weight, FIG. 6): 5-fu 20 mg/kg
Method: as §1, §2, §3, §4, §5, §6

[5] = tested on: human leukemia cell line K562; assay: In vitro tumor cell proliferation inhibition assay (MTT method), K562; format: cell-based; details: 72 hours, mean of triplicate experiments, read-out: IC50 against K562
Method: (§7) Sulforhodamine B Colorimetric Method (SRB Method) and MTT Colorimetric Method (MTT Method)
(§8) Human lung cancer cell line A549, human liver cancer cell line HepG2, human colon cancer cell line HCT116, human colon cancer cell line HT-29, human leukemia cell line K562, human cervical cancer cell line hela, and human breast cancer cell line MCF-7, all provided by the Shanghai Cell Bank, Chinese Academy of Sciences.
(§9) A549, HepG2, HCT116, HT-29, K562, hela, and MCF-7 cells were cultured respectively in 1640, DMEM, 5A, 5A, 1640, DMEM, and 1640 culture media containing 10 wt % heat-inactivated FBS (fetal bovine serum), 2 mM L-glutamine, 100 U/mL penicillin and […] streptomycin, in a cell incubator at 37° C. and 5 vol % CO2. The medium was replaced every two days. After the A549, HepG2, HCT116, HT-29, hela, and MCF-7 cells were confluent, they were digested with 0.05% (w/v) trypsin-EDTA at 37° C., passaged, and maintained in the logarithmic growth phase suitable for testing. The K562 suspension cells were passaged without digestion, and maintained in the logarithmic growth phase suitable for testing. The A549, HepG2, HCT116, HT-29, K562, hela, and MCF-7 cells in the logarithmic growth phase were inoculated to 96-well plates at 5000, 5000, 5000, 5000, 6000, 5000, 5000 per well, respectively, and cultured at 37° C. for 24 h.
(§10) Then various concentrations of test samples were added. The positive control group was doxorubicin hydrochloride (final concentration was 1 μM), the solvent control group was an equal volume of DMSO, and the blank control group was an equal volume of a culture medium, with 4 replicate wells for each concentration. After the A549, HepG2, HCT116, HT-29, hela, and MCF-7 cells were treated with the test drugs for 72 hours, the cells in each well were fixed with 50% (m/v) cold trichloroacetic acid (TCA) and stained with SRB. Then […] of Tris solution was added, and the OD value at the wavelength of 540 nm was measured using a microplate reader. For K562 cells, after 72 hours of treatment with the test drugs, […] of 5 mg/mL MTT was added, and the cells were incubated at 37° C. for 4 hours. Next, […] of a triplet solution (10% SDS, 5% isobutanol, 12 mM HCl) was added, followed by further incubation for 12 to 20 hours. The OD value at the wavelength of 570 nm was measured using a microplate reader.
(§11) The tumor cell growth inhibition rate was calculated according to the following equation: […]
(§12) in the equation, • OD540 control well is the absorbance of the control group; • OD540 dosing well is the absorbance of the test group.
(§13) IC50 values of the test drugs (calculated by GraphPad Prism 5 software) were the means of the results of triplicate experiments.

[6] = tested on: A549, HepG2, HCT116, HT-29, K562, hela, and MCF-7 cell lines; assay: In vitro tumor cell proliferation inhibition assay, summary over all 7 types of cells; format: cell-based; details: Homo sapiens, upper bound over A549, HepG2, HCT116, HT-29, K562, hela, MCF-7
Method: as §7, §8, §9, §10, §11, §12, §13

[7] = tested on: human breast cancer cell line MCF-7; assay: In vitro tumor cell proliferation inhibition assay (SRB method), MCF-7; format: cell-based; details: MCF7, 72 hours, SRB, mean of triplicate experiments, read-out: IC50 against MCF-7
Method: as §7, §8, §9, §10, §11, §12, §13

[8] = tested on: human colon cancer cell line HT-29; assay: In vitro tumor cell proliferation inhibition assay (SRB method), HT-29; format: cell-based; details: 72 hours, SRB, mean of triplicate experiments, read-out: IC50 against HT-29
Method: as §7, §8, §9, §10, §11, §12, §13

[9] = tested on: human lung cancer cell line A549; assay: In vitro tumor cell proliferation inhibition assay (SRB method), A549; format: cell-based; details: 72 hours, SRB; for IC50: mean of triplicate experiments, read-out: IC50 against A549; for inhibition at 10 µM: test compounds 10 μM, read-out: Inhibition rate on A549
Method: as §7, §8, §9, §10, §11, §12, §13

[10] = tested on: human cervical cancer cell line hela; assay: In vitro tumor cell proliferation inhibition assay (SRB method), hela; format: cell-based; details: 72 hours, SRB, mean of triplicate experiments, read-out: IC50 against hela
Method: as §7, §8, §9, §10, §11, §12, §13

[11] = tested on: human liver cancer cell line HepG2; assay: In vitro tumor cell proliferation inhibition assay (SRB method), HepG2; format: cell-based; details: 72 hours, SRB; for IC50: mean of triplicate experiments, read-out: IC50 against HepG2; for inhibition at 10 µM: test compounds 10 μM, read-out: Inhibition rate on HepG2
Method: as §7, §8, §9, §10, §11, §12, §13

[12] = tested on: human colon cancer cell line HCT116; assay: In vitro tumor cell proliferation inhibition assay (SRB method), HCT116; format: cell-based; details: SRB; for IC50: HCT-116, 72 hours, mean of triplicate experiments, read-out: IC50 against HCT116; for inhibition at 10 µM: HCT-116, test compounds 10 μM, 72 hours, read-out: Inhibition rate on HCT116
Method: as §7, §8, §9, §10, §11, §12, §13

| IC50 [5] | IC50 [6] | IC50 [7] | IC50 [8] | IC50 [9] | IC50 [10] | IC50 [11] | IC50 [12] | SMILES | average tumor volume at the end of the experiment [1] | inhibitory effect (inhibition rate of average tumor weight, FIG. 6) [1] | body weight compared to the solvent control (FIG. 2) [2] | average tumor volume at the end of the experiment [3] | inhibitory effect (inhibition rate of average tumor weight, FIG. 6) [3] | average tumor volume at the end of the experiment [4] | inhibitory effect (inhibition rate of average tumor weight, FIG. 6) [4] | inhibition at 10 µM [9] | inhibition at 10 µM [11] | inhibition at 10 µM [12] |
| --- | --- | --- | --- | --- | --- | --- | --- | --- | --- | --- | --- | --- | --- | --- | --- | --- | --- | --- |
| – | – | – | – | – | – | – | – | O=c1[nH]cc(F)c(=O)[nH]1 [Compound 5-fu, 5-fluorouracil, reference compound] | 322.03 mm^3 | 43.11% | significant weight loss | 599.83 mm^3 | 44.81% | 658.02 mm^3 | 44.60% | – | – | – |
| 9.36 µM | < 35.5 µM | 5.75 µM | 17.6 µM | 6.57 µM | 9.38 µM | 7.9 µM | 3.96 µM | COc1c(CNC(=O)CCl)c(C)cc(C)c1CNC(=O)CCl [Compound I-4, N-(2-methoxy-3-chloroacetamidomethyl-4,6-dimethylbenzyl) chloroacetamide] | – | 22.05% | – | 574.36 mm^3 | 29.86% | – | 23.90% | 69% | 82.9% | 69.3% |
| 9.74 µM | < 35.5 µM | 6.98 µM | 35.4 µM | 5.95 µM | 8.86 µM | 8.36 µM | 7.36 µM | CC(=O)NCc1c(C)cc(O)c(C)c1C [Compound I-6, N-(2,3,6-trimethyl-4-hydroxybenzyl) acetamide] | 492.12 mm^3 | 35.19% | – | – | – | 559.37 mm^3 | 32.07% | 94.9% | 81.1% | 96.6% |
| 12.7 µM | < 35.5 µM | 5.75 µM | 28.9 µM | 8.11 µM | 9.68 µM | 8.61 µM | 7.44 µM | Cc1cc(O)c(CNC(=O)CCl)c(C)c1Cl [Compound I-7, N-(2,4-dimethyl-3-chloro-6-hydroxybenzyl) chloroacetamide] | 559.37 mm^3 | 33.56% | – | 624.48 mm^3 | – | – | 26.52% | 55% | 95.8% | 95.1% |
